From PubChem BioAssay AID2060909 (Molecular Pharmacology Branch, DTP, NCI, 2025) come the findings set out here.

The test relates to 362531-283-R-J2-PDC complex spheroid viability. Nature of the test: Anticancer human tumor 362531-283-R-J2-PDC patient-derived colon adenocarcinoma cell line growth inhibition [RAS]. The following applies: for viability, T/C: stronger effect = lower value. A digest of the protocol: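 Multi-cell-type spheroids: tumor cells plus HUVEC endothelial cells and mesenchymal stem cells. RAS-pathway inhibitors were combined with targeted agents, each dosed in half-log steps down from clinical Cmax, or from 10 microM when Cmax was unknown.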

In general, IC50 refers to the point on the concentration scale where inhibition reaches its midpoint. A word on the viability, T/C: it is the ratio of treated to control.
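Note: spheroids exposed to the agents for 7 days before readout.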
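Throughout, for viability, T/C: luminescence viability as percent of DMSO vehicle control wells.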

In the case of `Nc1ccn(C2OC(CO)C(O)C2(F)F)c(=O)n1` (stereo unspecified) + CCn1c(-c2cc(N3CCN(C)CC3)cnc2C(C)OC)c2c3cc(ccc31)-c1csc(n1)CC(NC(=O)C1CC1C)C(=O)N1CCCC(N1)C(=O)OCC(C)(C)C2, the IC50 is 0.181 µM (curve of first compound, second compound 0.000949 µM); 0.177 µM (curve of first compound, second compound 0.003 µM); 0.128 µM (curve of first compound, second compound 0.00949 µM); 0.141 µM (curve of first compound, second compound 0.03 µM); 0.08 µM (curve of first compound, second compound 0.0949 µM); below 0.00316 µM (curve of first compound, second compound 0.3 µM). Besides, the viability, T/C (second compound 0.000949 µM, first compound 0.00316 µM) is 98.9%; the viability, T/C (second compound 0.000949 µM, first compound 0.01 µM) was 108%; the viability, T/C (second compound 0.000949 µM, first compound 0.0316 µM) was 80.5%; the viability, T/C (second compound 0.000949 µM, first compound 0.1 µM) is 75.7%; the viability, T/C (second compound 0.000949 µM, first compound 0.316 µM) was 23.7%; the viability, T/C (second compound 0.000949 µM, first compound 1 µM) is 27.7%. Besides, the viability, T/C by setting is: (second compound 0.003 µM, first compound 0.00316 µM) 110%; (second compound 0.003 µM, first compound 0.01 µM) 91%; (second compound 0.003 µM, first compound 0.0316 µM) 82%; (second compound 0.003 µM, first compound 0.1 µM) 75.7%; (second compound 0.003 µM, first compound 0.316 µM) 18.9%; (second compound 0.003 µM, first compound 1 µM) 29.3%. Besides, the viability, T/C reads like this: (second compound 0.00949 µM, first compound 0.00316 µM) 95%; (second compound 0.00949 µM, first compound 0.01 µM) 101%; (second compound 0.00949 µM, first compound 0.0316 µM) 66.7%; (second compound 0.00949 µM, first compound 0.1 µM) 69.5%; (second compound 0.00949 µM, first compound 0.316 µM) 17.6%; (second compound 0.00949 µM, first compound 1 µM) 24.9%. Moreover, the viability, T/C reads like this: (second compound 0.03 µM, first compound 0.00316 µM) 97.9%; (second compound 0.03 µM, first compound 0.01 µM) 86.8%; (second compound 0.03 µM, first compound 0.0316 µM) 75.5%; (second compound 0.03 µM, first compound 0.1 µM) 63.6%; (second compound 0.03 µM, first compound 0.316 µM) 15.3%; (second compound 0.03 µM, first compound 1 µM) 21.6%. The viability, T/C is, setting by setting: (second compound 0.0949 µM, first compound 0.00316 µM) 80.2%; (second compound 0.0949 µM, first compound 0.01 µM) 80%; (second compound 0.0949 µM, first compound 0.0316 µM) 64.4%; (second compound 0.0949 µM, first compound 0.1 µM) 49.9%; (second compound 0.0949 µM, first compound 0.316 µM) 10.8%; (second compound 0.0949 µM, first compound 1 µM) 17.4%. In addition, the viability, T/C (second compound 0.3 µM, first compound 0.00316 µM) is 40.9%; the viability, T/C (second compound 0.3 µM, first compound 0.01 µM) is 46.2%; the viability, T/C (second compound 0.3 µM, first compound 0.0316 µM) is 28.5%; the viability, T/C (second compound 0.3 µM, first compound 0.1 µM) was 25.1%; the viability, T/C (second compound 0.3 µM, first compound 0.316 µM) is 14.6%; the viability, T/C (second compound 0.3 µM, first compound 1 µM) is 10.3%.

As for `C[C@@H](NC(=O)c1ncnc(N)c1Cl)c1ncc(C(=O)Nc2cc(C(F)(F)F)c(Cl)cn2)s1`, the viability, T/C runs as follows: (compound 0.0316 µM) 97.4% [middle of 4 runs]; (compound 0.1 µM) 102% [middle of 4 runs]; (compound 1 µM) 95.7% [middle of 4 runs]; (compound 3.16 µM) 93.9% [middle of 4 runs]; (compound 10 µM) 75.5% [middle of 4 runs]. Further, the IC50 (curve of compound) was above 10 µM.

`O=C(c1ccc(F)c(F)c1Nc1ccc(I)cc1F)N1CC(O)([C@@H]2CCCCN2)C1`: the viability, T/C reads like this: (compound 0.00316 µM) 100% [middle of 4 runs]; (compound 0.01 µM) 94.8% [middle of 4 runs]; (compound 0.1 µM) 90.7% [middle of 4 runs]; (compound 0.316 µM) 64.7% [middle of 4 runs]; (compound 1 µM) 19% [middle of 4 runs]. Also, the IC50 (curve of compound) was 507 nM [middle of 4 runs].

`CCc1c2c(nc3ccc(O)cc13)-c1cc3c(c(=O)n1C2)COC(=O)[C@]3(O)CC` + C=CC(=O)N1CCN(c2nc(OCC3CCCN3C)nc3c(F)c(-c4nc(N)cc(C)c4C(F)(F)F)c(Cl)cc23)C(C)C1: the IC50 (curve of first compound, second compound 0.00316 µM) was determined as 0.0246 µM; the IC50 (curve of first compound, second compound 0.01 µM) is 0.0242 µM; the IC50 (curve of first compound, second compound 0.0316 µM) came to 0.0302 µM; the IC50 (curve of first compound, second compound 0.1 µM) turned out to be 0.0205 µM; the IC50 (curve of first compound, second compound 0.316 µM) was 0.0244 µM; the IC50 (curve of first compound, second compound 1 µM) came to 0.0235 µM. The viability, T/C by setting is: (second compound 0.00316 µM, first compound 0.000949 µM) 89.9%; (second compound 0.00316 µM, first compound 0.003 µM) 104%; (second compound 0.00316 µM, first compound 0.00949 µM) 61.3%; (second compound 0.00316 µM, first compound 0.03 µM) 51.9%; (second compound 0.00316 µM, first compound 0.0949 µM) 31.2%; (second compound 0.00316 µM, first compound 0.3 µM) 26.8%. The viability, T/C (second compound 0.01 µM, first compound 0.000949 µM) was 95.5%; the viability, T/C (second compound 0.01 µM, first compound 0.003 µM) is 93.6%; the viability, T/C (second compound 0.01 µM, first compound 0.00949 µM) was 84.6%; the viability, T/C (second compound 0.01 µM, first compound 0.03 µM) was 42.4%; the viability, T/C (second compound 0.01 µM, first compound 0.0949 µM) is 29.5%; the viability, T/C (second compound 0.01 µM, first compound 0.3 µM) is 35.1%. Further, the viability, T/C was 96.2% (second compound 0.0316 µM, first compound 0.000949 µM); 91.8% (second compound 0.0316 µM, first compound 0.003 µM); 72.7% (second compound 0.0316 µM, first compound 0.00949 µM); 46.5% (second compound 0.0316 µM, first compound 0.03 µM); 37.3% (second compound 0.0316 µM, first compound 0.0949 µM); 20.7% (second compound 0.0316 µM, first compound 0.3 µM). Besides, the viability, T/C is 111% (second compound 0.1 µM, first compound 0.000949 µM); 101% (second compound 0.1 µM, first compound 0.003 µM); 54% (second compound 0.1 µM, first compound 0.00949 µM); 54% (second compound 0.1 µM, first compound 0.03 µM); 33% (second compound 0.1 µM, first compound 0.0949 µM); 29.1% (second compound 0.1 µM, first compound 0.3 µM). Moreover, the viability, T/C (second compound 0.316 µM, first compound 0.000949 µM) is 87.2%; the viability, T/C (second compound 0.316 µM, first compound 0.003 µM) was 92.4%; the viability, T/C (second compound 0.316 µM, first compound 0.00949 µM) was 71.5%; the viability, T/C (second compound 0.316 µM, first compound 0.03 µM) is 43.8%; the viability, T/C (second compound 0.316 µM, first compound 0.0949 µM) is 37.1%; the viability, T/C (second compound 0.316 µM, first compound 0.3 µM) was 24.5%. Also, the viability, T/C by setting is: (second compound 1 µM, first compound 0.000949 µM) 99.6%; (second compound 1 µM, first compound 0.003 µM) 87.1%; (second compound 1 µM, first compound 0.00949 µM) 71.9%; (second compound 1 µM, first compound 0.03 µM) 42.3%; (second compound 1 µM, first compound 0.0949 µM) 33.3%; (second compound 1 µM, first compound 0.3 µM) 26.3%.
